# Source: EP4132503B1, “PROBENECID FOR USE IN THE TREATMENT OF SARS-CO-V2 INFECTIONS” (priority 2020, dated 2021)
# Read-outs that look alike come from different tables or passages of the source.
# Key:
# [1] = tested on: SARS-CoV-2 (Isolate USA-WA1/2020); assay: Prophylactic and therapeutic treatment of SARS-CoV-2 infected hamsters; lung viral titer (TCID50 and plaque assay)
# SARS-CoV-2 [2] = type: cell-based; details: post-treatment, added after 1 hour infection, compared to DMSO treated infected control, Figure 3
# [3] = tested on: SARS-CoV-2 (Isolate USA-WA1/2020); type: cell-based; details: 24 h pre-treatment, compared to DMSO treated infected control
# SARS-CoV-2 [4] = details: for patients converted to negative SARS-CoV-2 test (of the 10 patients enrolled): 500 mg twice daily
# [5] = cited from earlier work
# SARS-CoV-2 [6] = type: cell-based
# [7] = prophylactic and therapeutic conditions, both cell types (NHBE and Vero)
structure (smiles),measurement,setting,value
"CCCN(CCC)S(=O)(=O)c1ccc(C(=O)O)cc1 [probenecid, 4-[(dipropylamino)sulfony1] benzoic acid]",effectiveness of the two doses compared,"[1]; 2 mg and 200 mg treatment, single dose",similarly effective
same,lung virus titers,"[1]; day 3 post-infection, all probenecid-treated hamsters (2 or 200 mg/kg, prophylactic or therapeutic, single dose), PBS-treated 1E9+",1E5
same,lung virus,[1]; day 7 post infection,no detectable lung virus
same,prophylactic compared with therapeutic treatment,"[1]; hamster, in vivo",worked similarly
same,decrease of lung virus titers,"[1]; hamsters, compared to PBS-treated",several logs
same,reduction in plaque formation,SARS-CoV-2 [2]; 0.0001µM,40%
same,reduction in plaque formation,SARS-CoV-2 [2]; 5µM,~ 90%
same,reduction in plaque formation,"[3]; 0.0001µM, another experiment, 6 well plate, Figure 2",50%
same,reduction in plaque formation,"[3]; 0.1µM, Vero E6, MOI 0.01, 4 days, Figure 1",72%
same,reduction in plaque formation,"[3]; 5µM, Vero E6, MOI 0.01, 4 days, Figure 1",~ 89%
same,reduction in plaque formation,"[3]; 5µM, another experiment, 6 well plate, Figure 2",~ 93%
same,patients converted to negative SARS-CoV-2 test (of the 10 patients enrolled),SARS-CoV-2 [4]; Day 4 of treatment,2
same,patients converted to negative SARS-CoV-2 test (of the 10 patients enrolled),SARS-CoV-2 [4]; Day 9 of treatment,four
same,patients converted to negative SARS-CoV-2 test (of the 10 patients enrolled),SARS-CoV-2 [4]; Day 14 of treatment,nine
same,viral shedding of SARS-CoV-2,"SARS-CoV-2 [4]; compared to literature pooled median of 17.2 days, all but one patient (Patient 003)",< 17.2 days
same,patient symptoms,"SARS-CoV-2 [4]; no scored grading system used, shortness of breath and loss of taste or smell persisted",showed improvement
same,coagulation and inflammatory markers,SARS-CoV-2 [4]; with the exception of one patient (Patient 001),mostly maintained within normal ranges
same,lipid solubility,[5],highly lipid soluble
same,IC50s compared with remdesivir,SARS-CoV-2 [6]; [7],lower
same,IC90s compared with remdesivir,SARS-CoV-2 [6]; [7],lower
same,virus plaque formation,"SARS-CoV-2 [6]; treated prophylactically or therapeutically, compared to controls",dose-dependent decrease
